“And” between values parts separate entries of the source, which are not always exact repeats. Equal entries are not always repeated.
Columns and labels:
[1] = test system: E. coli NCTC 13353 (CTX-M15, OXA-1); test: Antibacterial activity (MIC), agar dilution per CLSI; assay type: cell-based; conditions: Escherichia coli, NCTC13353; E. coli NCTC 13353 (CTX-M15, OXA-1); read-out: MIC
Experimental: (§1) The biological activity of representative compounds according to the invention against various bacterial strains was investigated. In a typical study, overnight grown bacterial cultures were diluted appropriately and inoculated on the agar media containing doubling dilutions of the test compounds. Observations for growth or no growth was performed after 16-20 hours of incubation at 35±2° C. in the ambient air. The overall procedure was performed as per Clinical and Laboratory Standards Institute (CLSI) recommendations, (Clinical and Laboratory Standards Institute (CLSI), Performance Standards for Antimicrobial Susceptibility Testing, 20th Informational Supplement, M07-A9, Volume 32, No. 2, 2012). Molten Mueller Hinton Agar (BD, USA) containing serial dilutions of each antibacterial agent were poured on to the plates and allowed to solidify. Appropriate suspensions from the freshly grown cultures were prepared in normal saline so that about 10^4 CFU/spot of the organism was delivered on to the drug containing agar plates using automated multipoint inoculator (Mast, UK). The plates were incubated in Biochemical oxygen demand (BOD) incubator at 37° C. for 18 hours and then examined for growth.
(§2) The strains selected for study included E. coli NCTC 13353 producing CTX-M15 and OXA-1 beta-lactamase enzymes; K. pneumoniae H521 producing KPC, SHV, TEM beta-lactamase enzymes; and K. pneumoniae S48 producing NDM, SHV, TEM beta-lactamase enzymes. The activities are expressed as Minimum Inhibitory Concentrations (MICs) (mcg/ml).
(§3) The activities are expressed as Minimum Inhibitory Concentrations (MICs) (mcg/ml).

[2] = test system: K. pneumoniae H521 (KPC, SHV, TEM); test: as above; assay type: cell-based; conditions: Klebsiella pneumoniae; K. pneumoniae H521 (KPC, SHV, TEM); read-out: MIC
Experimental: as §1, §2, §3

C. frundaii 58 MP = test: as above; assay type: cell-based
Experimental: as §1
(§4) Table 3 details the antibacterial activity of representative compound of Formula (I), (2S,5R)-sulfuric acid mono-{2-[N′-(2-(S)-pyrrolidin-2-yl-acetyl)-hydrazinocarbonyl]-7-oxo-1,6-diaza-bicyclo[3.2.1]oct-6-yl}ester (Compound of Example 1), against various Multi Drug Resistant (MDR) Gram-negative bacterial strains. The activities are expressed as Minimum Inhibitory Concentrations (MICs) (mcg/ml).

E. cloacae M 20 = test: as above; assay type: cell-based; conditions: Enterobacter cloacae, M20
Experimental: as §1, §4

E. coli 7 MP = test: as above; assay type: cell-based; conditions: Escherichia coli
Experimental: as §1, §4

E. coli M 49 = test: as above; assay type: cell-based; conditions: Escherichia coli, M49
Experimental: as §1, §4

E. coli M 50 = test: as above; assay type: cell-based; conditions: Escherichia coli, M50
Experimental: as §1, §4

E. coli NCTC 13351 = test: as above; assay type: cell-based; conditions: Escherichia coli, NCTC13351
Experimental: as §1, §4

E. coli NCTC 13352 = test: as above; assay type: cell-based; conditions: Escherichia coli, NCTC13352
Experimental: as §1, §4

K. pneumoniae H 525 = test: as above; assay type: cell-based; conditions: Klebsiella pneumoniae, H525
Experimental: as §1, §4

K. pneumoniae S 21 = test: as above; assay type: cell-based; conditions: Klebsiella pneumoniae, S21
Experimental: as §1, §4

P. aeruginosa 2779 = test: as above; assay type: cell-based; conditions: Pseudomonas aeruginosa
Experimental: as §1, §4

P. aeruginosa ATCC 27853 = test: as above; assay type: cell-based; conditions: Pseudomonas aeruginosa, ATCC27853
Experimental: as §1, §4

P. aeruginosa PAO1 = test: as above; assay type: cell-based; conditions: Pseudomonas aeruginosa
Experimental: as §1, §4

P. aeruginosa R 20 = test: as above; assay type: cell-based; conditions: Pseudomonas aeruginosa, R20
Experimental: as §1, §4

[3] = target: T1, Class A beta-lactamase SHV 18 (K. pneumoniae ATCC 700603) (Klebsiella pneumoniae, UniProt P0AD64, E235K/G234A/I4F/R39S); test: Beta-lactamase enzyme inhibition (Nitrocefin, crude enzyme); assay type: biochemical; conditions: Class A, K. pneumoniae ATCC 700603 (SHV 18); read-out: Beta-lactamase enzyme inhibition IC50
T1 sequence (P0AD64 1-286 I4F/R39S/G234A/E235K): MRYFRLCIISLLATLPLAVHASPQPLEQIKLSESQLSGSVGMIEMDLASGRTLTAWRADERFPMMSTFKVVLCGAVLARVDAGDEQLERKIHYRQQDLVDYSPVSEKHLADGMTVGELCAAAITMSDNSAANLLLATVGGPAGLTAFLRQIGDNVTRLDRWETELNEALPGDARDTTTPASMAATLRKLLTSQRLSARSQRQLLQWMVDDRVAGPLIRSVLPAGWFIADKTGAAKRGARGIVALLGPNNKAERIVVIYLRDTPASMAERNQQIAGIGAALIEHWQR
Experimental: (§5) Absorbance was measured at 485 nm by UV-spectrophotometer. The IC50 was calculated by plotting absorbance against concentration through Sigmoidal dose response curve using Graph Pad software.
The enzyme inhibition was expressed as IC50.

[4] = target: T2, Class C beta-lactamase P99 (E. cloacae J137) (Enterobacter cloacae, UniProt P05364); test: as above; assay type: biochemical
T2 construct: preincubated mixture of crude enzyme and the compounds; endogenous in cells; host or cells: E. cloacae J137
Experimental: as §5

[5] = target: Class D beta-lactamase OXA 26 (A. baumannii NCTC 13303) (Acinetobacter baumannii, UniProt Q9F0V2); test: as above; assay type: biochemical; conditions: A. baumannii NCTC 13303 (OXA 26), read-out: Beta-lactamase enzyme inhibition IC50
Experimental: as §5

T2 sequence (P05364 21-381): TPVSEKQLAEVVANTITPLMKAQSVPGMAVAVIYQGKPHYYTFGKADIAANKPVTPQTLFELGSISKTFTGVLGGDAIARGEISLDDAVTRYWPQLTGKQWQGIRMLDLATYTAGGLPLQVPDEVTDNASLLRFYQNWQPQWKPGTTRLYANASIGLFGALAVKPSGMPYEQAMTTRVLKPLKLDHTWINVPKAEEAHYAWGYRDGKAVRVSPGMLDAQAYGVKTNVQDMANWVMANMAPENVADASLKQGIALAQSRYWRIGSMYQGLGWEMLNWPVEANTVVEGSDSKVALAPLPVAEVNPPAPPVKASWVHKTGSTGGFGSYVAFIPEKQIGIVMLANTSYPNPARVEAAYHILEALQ
Class D beta-lactamase OXA 26 (A. baumannii NCTC 13303), sequence (Q9F0V2 entry or part of it): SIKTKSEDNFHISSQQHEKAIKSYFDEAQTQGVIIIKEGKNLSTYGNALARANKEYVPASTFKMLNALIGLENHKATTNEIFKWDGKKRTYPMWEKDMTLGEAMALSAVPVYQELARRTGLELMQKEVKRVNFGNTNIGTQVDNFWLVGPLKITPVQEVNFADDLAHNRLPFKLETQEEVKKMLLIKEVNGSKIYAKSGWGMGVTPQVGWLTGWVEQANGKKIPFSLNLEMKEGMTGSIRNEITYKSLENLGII

NC(=O)[C@@H]1CC[C@@H]2CN1C(=O)N2OS(=O)(=O)O [Avibactam, avibactam, reference compound]
10100 nM: IC50 [5]
> 64 µg/mL: MIC (C. frundaii 58 MP) | MIC (E. cloacae M 20) | MIC (E. coli 7 MP) | MIC (E. coli M 50) | MIC (E. coli NCTC 13351) | MIC (E. coli NCTC 13352) | MIC (P. aeruginosa 2779) | MIC (P. aeruginosa ATCC 27853) | MIC (P. aeruginosa PAO1) | MIC (P. aeruginosa R 20)
8 µg/mL: MIC (K. pneumoniae H 525)
98 nM and 10 nM: IC50 [3]
79 nM: IC50 [4]
16 µg/mL: MIC [1] | MIC [2] | MIC (E. coli M 49) | MIC (K. pneumoniae S 21)

Reference: patent US9657022B2, “7-OXO-1,6-diazabicyclo[3.2.1]octane derivatives and their use as antibacterial agents” (WOCKHARDT LIMITED, priority 2014, dated 2017)
